Reference: PMC9578445, “Association of respiratory failure with inhibition of NaV1.6 in the phrenic nerve” (Channels, 2022)

Legend:
Rat NaV1.6 = molecular target: T1, Rat NaV1.6 (Rattus norvegicus, UniProt O88420); assay: PatchXpress automated patch clamp, hyperpolarized-state protocol; format: cell-based; conditions: for IC50: HEK cells, hyperpolarized protocol
T1 construct: expressed in transfected cells; host or cells: HEK cells
Method: (§1) Sodium currents were recorded from recombinant Human Embryonic Kidney 293 cell lines stably overexpressing the respective sodium channel type (NaV1.2, 1.5, 1.4, 1.6, 1.7). Recording solutions were comprised of the following (in mM): Internal solution: 30 CsCl, 5 HEPES, 10 EGTA, 120 CsF, 5 NaF, 2 MgCl2, pH = 7.3 with CsOH; External solution 1: 40 NaCl, 120 NMDG, 1 KCl, 0.5 MgCl2, 5 HEPES, 2.7 CaCl2, pH to 7.3 with NaOH, used for NaV1.5 recordings; External solution 2: 150 NaCl, 5 KCl, 2 CaCl2, 1 MgCl2, 10 HEPES, 12 Dextrose, pH 7.3 with NaOH, used for NaV1.7, 1.6, 1.4, and 1.2 recordings.
(§2) Whole-cell currents were recorded from cells stably expressing NaV channels using the PatchXpress 7000A automated patch clamp platform (Molecular Devices, LLC; Sunnyvale, CA). A portable air-conditioning unit was installed on the PatchXpress instruments to maintain the temperature of the headstage at 21°C. Cells were voltage clamped at −60 mV for cell detection and sealing. At the start of each recording, a voltage curve and an inactivation curve was run for each cell to determine the voltage at which 50% of the channels reside in the inactivated state (V0.5 inact). The voltage curve was used to determine if the cell was adequately clamped; cells with currents larger than 10nA or with space clamp issues were not used further.
(§3) NaV1.7, NaV1.6, NaV1.4: Compound potency was measured in a hyperpolarized-state protocol where the holding potential for each cell was set to V0.5inact – 20 mV. A pulse train consisting of 7 consecutive double pulses, 8 second hypepolarizing prepulse to −120 mV followed by a test pulse to −10 mV was applied at a frequency of 0.1 Hz. First, vehicle (0.3% DMSO) was added to establish a baseline measurement. Once baseline was established, test compounds were added. Cells were exposed to compound for 5 minutes at 20 mV negative to V0.5inact then exposed to the same hyperpolarized voltage protocol. (no pulsing during compound incubation). A washout was performed to measure recovery of the sodium currents from inhibition.
(§4) Recordings were included for analysis when current amplitude reached steady-state in vehicle, compound inhibition was concentration-dependent and currents recovered during wash-out periods. Raw data from PatchXpress experiments were retrieved from the database and analyzed using the DataXpress 2 software (Molecular Devices).
(§5) At least 3 concentrations (3–9 replicates per concentration) were tested and at least one concentration had to cause 20–80% current inhibition.

Human NaV1.7 = molecular target: T2, Human NaV1.7 (Homo sapiens, UniProt Q15858); assay: as above; format: cell-based; conditions: HEK 293 cells
T2 construct: expressed in transfected cells
Method: as §1, §2, §3, §4, §5

Nav1.6 = Nav1.6 (Homo sapiens, UniProt Q9UQD0); assay: as above; format: cell-based; design: expressed in transfected cells; conditions: for IC50: HEK 293 cells, hyperpolarized protocol
Method: as §1, §2, §3, §4, §5

[1] = tested on: rat diaphragm with the phrenic nerve attached; assay: Rat hemisected diaphragm (HMD) assay, ex vivo; conditions: for inhibition in rat HMD assay: at both 10 and 30 μM; for IC50: relative to 3 μM d-Tubocurarine relaxation = 100%
Description: Wistar derived male or female rats weighing 450 ± 50 g were euthanized by CO2 overexposure. The diaphragm with the phrenic nerve attached was removed and placed into a tissue recording chamber containing Krebs solution pH 7.4; (composition in g/L: NaCl 6.89, KCl 0.35, CaCl2 0.277, KH2PO4 0.163, MgSO4 · 7H2O 0.296, NaHCO3 2.1 and glucose 1.8). A piece of cotton was attached to the top of the phrenic nerve over the jaw electrodes. A second piece of cotton was attached to the tip of the tendinous tissue at the apex of the diaphragm preparation for attachment to an isometric transducer under 1 g tension. The rib of the diaphragm preparation was secured to the bottom of the jaw electrodes. […] The recording chamber was placed into a water bath kept at a temperature of 32°C by means of a suitable thermoregulator consisting of a thermostat and heating elements in addition to a water circulator.
The isometric transducer was connected to an amplifier and the tissue response was recorded on a two-pen recorder set at 1 volt. Field stimulation [S48 Stimulator (GRASS) set at 0.2 Hz (12 pulses per minute), 0.5 ms pulse duration at 70% of maximum voltage (about 3 to 5 volts)] delivered to two circle platinum electrodes (0.2 cm in diameter) was applied for transmural tissue stimulation. Each tissue preparation was washed three times in Krebs solution every 15 minutes for a 60 minute equilibration period and permitted to develop contractions. D-Tubocurarine (300 µM dissolved in 0.1 mL distilled water for a final 3 µM bath concentration) was added to establish an isometrically recorded control relaxation response ranging from one to two centimeters and corresponding to 60–70% of maximal relaxation. […] The tissue was then washed periodically until the contraction returns to the baseline value.
Sixty minutes later, the test compound was added (e.g. 30 mM in 0.01 mL vehicle of 100% DMSO, for final concentration of 30 µM test compound and 0.1% DMSO). A test compound recorded relaxation response of 50% or more (≥50%) within 5 minutes, relative to the 3 µM d-Tubocurarine control response, indicates neuromuscular blocking activity.

Human NaV1.4 = molecular target: T3, Human NaV1.4 (Homo sapiens, UniProt P35499); assay: PatchXpress automated patch clamp, hyperpolarized-state protocol; format: cell-based; conditions: HEK 293 cells
T3 construct: expressed in transfected cells
Method: as §1, §2, §3, §4, §5

[2] = Permeability (Papp, passive diffusion); format: in vitro ADME

T3 sequence (P35499 whole entry): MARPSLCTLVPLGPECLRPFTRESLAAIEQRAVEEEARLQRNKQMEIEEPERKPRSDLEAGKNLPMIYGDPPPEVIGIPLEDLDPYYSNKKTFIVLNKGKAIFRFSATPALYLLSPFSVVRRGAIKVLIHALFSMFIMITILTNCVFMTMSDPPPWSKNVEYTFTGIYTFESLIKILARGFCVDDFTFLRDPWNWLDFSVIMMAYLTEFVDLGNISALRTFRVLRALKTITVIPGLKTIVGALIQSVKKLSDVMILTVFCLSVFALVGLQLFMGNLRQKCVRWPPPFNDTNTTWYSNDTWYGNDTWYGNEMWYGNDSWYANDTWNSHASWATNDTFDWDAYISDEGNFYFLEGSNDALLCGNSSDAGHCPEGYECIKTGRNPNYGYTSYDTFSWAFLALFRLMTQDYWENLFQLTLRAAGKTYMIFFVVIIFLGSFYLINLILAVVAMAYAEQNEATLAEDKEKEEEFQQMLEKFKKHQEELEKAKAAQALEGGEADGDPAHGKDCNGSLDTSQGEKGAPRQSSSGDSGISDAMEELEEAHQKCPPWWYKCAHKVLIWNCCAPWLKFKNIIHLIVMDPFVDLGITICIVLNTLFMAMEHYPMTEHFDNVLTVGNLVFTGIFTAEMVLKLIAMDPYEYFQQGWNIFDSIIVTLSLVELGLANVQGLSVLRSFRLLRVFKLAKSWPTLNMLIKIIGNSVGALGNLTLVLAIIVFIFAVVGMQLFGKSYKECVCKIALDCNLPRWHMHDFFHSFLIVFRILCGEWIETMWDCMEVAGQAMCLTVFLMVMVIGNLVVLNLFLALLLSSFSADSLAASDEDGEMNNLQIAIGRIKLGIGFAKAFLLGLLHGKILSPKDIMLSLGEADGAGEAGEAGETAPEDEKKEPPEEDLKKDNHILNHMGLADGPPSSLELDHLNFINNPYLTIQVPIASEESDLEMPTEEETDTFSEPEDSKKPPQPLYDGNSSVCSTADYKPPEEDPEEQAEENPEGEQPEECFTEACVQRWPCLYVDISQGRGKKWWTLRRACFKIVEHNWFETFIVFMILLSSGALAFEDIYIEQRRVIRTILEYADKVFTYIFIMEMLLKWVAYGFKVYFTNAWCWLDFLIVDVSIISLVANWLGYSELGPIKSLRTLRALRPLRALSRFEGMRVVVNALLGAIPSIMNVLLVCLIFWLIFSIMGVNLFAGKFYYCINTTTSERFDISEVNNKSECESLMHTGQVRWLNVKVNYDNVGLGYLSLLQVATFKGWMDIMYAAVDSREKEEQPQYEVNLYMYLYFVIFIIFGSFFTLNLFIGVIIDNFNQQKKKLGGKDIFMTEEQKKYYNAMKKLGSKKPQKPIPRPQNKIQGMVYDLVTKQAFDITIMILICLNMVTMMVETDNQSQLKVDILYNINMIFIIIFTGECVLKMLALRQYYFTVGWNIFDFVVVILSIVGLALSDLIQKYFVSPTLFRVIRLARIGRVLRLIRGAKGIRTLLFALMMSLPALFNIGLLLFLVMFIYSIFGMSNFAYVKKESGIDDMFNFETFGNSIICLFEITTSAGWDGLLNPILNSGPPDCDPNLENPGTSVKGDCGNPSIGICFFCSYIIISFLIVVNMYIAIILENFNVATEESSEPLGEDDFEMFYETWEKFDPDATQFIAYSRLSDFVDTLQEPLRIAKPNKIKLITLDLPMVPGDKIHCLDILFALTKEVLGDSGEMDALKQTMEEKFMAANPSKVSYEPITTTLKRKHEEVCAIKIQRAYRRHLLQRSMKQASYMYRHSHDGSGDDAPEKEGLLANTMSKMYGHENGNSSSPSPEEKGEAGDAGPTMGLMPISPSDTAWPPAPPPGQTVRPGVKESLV
T2 sequence (Q15858 whole entry): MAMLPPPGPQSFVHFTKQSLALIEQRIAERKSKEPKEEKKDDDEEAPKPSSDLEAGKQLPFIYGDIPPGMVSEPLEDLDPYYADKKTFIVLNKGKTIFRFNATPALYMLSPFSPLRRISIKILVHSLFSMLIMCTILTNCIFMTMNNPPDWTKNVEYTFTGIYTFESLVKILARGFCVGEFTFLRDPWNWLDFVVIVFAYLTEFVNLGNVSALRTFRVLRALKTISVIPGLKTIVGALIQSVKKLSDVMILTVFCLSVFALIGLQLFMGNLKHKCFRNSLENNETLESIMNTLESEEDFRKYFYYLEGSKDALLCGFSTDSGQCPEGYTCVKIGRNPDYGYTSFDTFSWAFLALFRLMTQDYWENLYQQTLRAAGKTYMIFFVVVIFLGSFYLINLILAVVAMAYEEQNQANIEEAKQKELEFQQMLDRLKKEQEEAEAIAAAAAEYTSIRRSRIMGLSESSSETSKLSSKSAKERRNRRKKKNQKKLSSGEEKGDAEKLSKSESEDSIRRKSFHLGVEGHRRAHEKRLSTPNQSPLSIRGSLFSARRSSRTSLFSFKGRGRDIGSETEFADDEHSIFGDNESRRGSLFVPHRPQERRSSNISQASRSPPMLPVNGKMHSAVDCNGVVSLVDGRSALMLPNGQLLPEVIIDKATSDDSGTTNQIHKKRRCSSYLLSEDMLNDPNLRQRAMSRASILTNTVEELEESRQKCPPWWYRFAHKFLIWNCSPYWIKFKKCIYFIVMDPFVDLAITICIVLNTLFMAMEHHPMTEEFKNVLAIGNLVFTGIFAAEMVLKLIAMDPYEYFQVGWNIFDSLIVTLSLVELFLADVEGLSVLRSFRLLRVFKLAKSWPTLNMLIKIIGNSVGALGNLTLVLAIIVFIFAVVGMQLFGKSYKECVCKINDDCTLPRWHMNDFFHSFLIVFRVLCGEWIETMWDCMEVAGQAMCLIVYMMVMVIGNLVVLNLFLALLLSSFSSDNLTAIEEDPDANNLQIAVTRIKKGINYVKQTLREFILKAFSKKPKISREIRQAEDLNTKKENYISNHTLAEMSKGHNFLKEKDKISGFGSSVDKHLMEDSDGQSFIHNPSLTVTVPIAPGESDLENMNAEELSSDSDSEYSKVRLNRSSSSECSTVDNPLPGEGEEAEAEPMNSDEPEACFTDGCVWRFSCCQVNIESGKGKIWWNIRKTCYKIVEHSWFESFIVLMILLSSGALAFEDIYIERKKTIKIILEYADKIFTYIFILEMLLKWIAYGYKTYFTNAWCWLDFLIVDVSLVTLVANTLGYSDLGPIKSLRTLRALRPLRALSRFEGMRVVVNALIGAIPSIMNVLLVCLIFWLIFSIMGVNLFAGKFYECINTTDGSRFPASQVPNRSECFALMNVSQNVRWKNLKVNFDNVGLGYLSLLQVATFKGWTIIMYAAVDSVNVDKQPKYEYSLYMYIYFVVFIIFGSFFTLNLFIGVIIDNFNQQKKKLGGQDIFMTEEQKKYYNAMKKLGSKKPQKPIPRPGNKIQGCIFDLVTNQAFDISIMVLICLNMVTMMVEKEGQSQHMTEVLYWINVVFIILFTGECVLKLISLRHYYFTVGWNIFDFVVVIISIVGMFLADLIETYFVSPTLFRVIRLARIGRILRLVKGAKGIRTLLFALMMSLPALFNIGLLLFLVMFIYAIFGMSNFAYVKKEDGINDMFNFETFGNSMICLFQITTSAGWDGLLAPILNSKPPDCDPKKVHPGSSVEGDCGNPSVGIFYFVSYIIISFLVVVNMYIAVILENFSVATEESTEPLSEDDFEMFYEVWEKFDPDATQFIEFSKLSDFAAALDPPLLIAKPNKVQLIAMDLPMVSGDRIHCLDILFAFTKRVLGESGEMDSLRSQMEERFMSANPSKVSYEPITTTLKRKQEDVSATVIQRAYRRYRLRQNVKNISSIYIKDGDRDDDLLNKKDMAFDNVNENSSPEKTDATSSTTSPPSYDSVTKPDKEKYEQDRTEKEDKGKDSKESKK

## COc1ccc(CCC(c2cccc3c2CNCC3)n2c(=O)oc3cc(S(=O)(=O)Nc4ncns4)c(F)cc32)cc1 (stereo not shown) [SSCI-6]
Rat NaV1.6
  IC50: > 0.041 µM
Rat NaV1.6; at 41 nM
  inhibition at 0.041 µM: 45%
Human NaV1.7
  IC50: 0.29 µM
Nav1.6
  fold more potent at inhibiting NaV1.6 channels: approximately 10 fold
  IC50: 0.023 µM
[1]; at 10 (μM), relative to 3 μM d-Tubocurarine = 100%
  Ex vivo HMD inhibition: 130% at 10
[1]
  inhibition in rat HMD assay: supramaximal inhibition

## O=S(=O)(Nc1nccs1)c1cc(Cl)c(NCCCCNC[C@H]2CCCN2)cc1F [SSCI-1]
Rat NaV1.6
  IC50: 19 µM
Human NaV1.7
  IC50: 0.065 µM
Human NaV1.4
  IC50: > 30 µM
[2]
  Papp: 1.027 10e-6cm/s
Nav1.6
  IC50: > 30 µM
[1]
  inhibition of diaphragm contraction / respiratory effect in HMD assay: does not exhibit respiratory effect
  inhibition in rat HMD assay: little effect
[1]; Rattus norvegicus, highest concentration tested of 30 μM
  inhibition at 30 µM: < 50%
[1]; Rattus norvegicus
  IC50: > 30 µM

## C[C@H](c1cccc2c1CNCC2)n1c(=O)oc2cc(S(=O)(=O)Nc3ncns3)ccc21 [SSCI-3]
Rat NaV1.6
  IC50: 8.1 µM
Human NaV1.7
  IC50: 1 µM
Human NaV1.4
  IC50: > 30 µM
[2]
  Papp: 1.716 10e-6cm/s
Nav1.6
  IC50: 1.11 µM
[1]; Rattus norvegicus
  IC50: 2.7 µM

## N#Cc1cc(S(=O)(=O)Nc2cscn2)ccc1Oc1ccc(Cl)cc1-c1ccnn1C1CNC1 [SSCI-5]
Rat NaV1.6
  IC50: 7.4 µM
Human NaV1.7
  IC50: 2.1 µM
Human NaV1.4
  IC50: > 30 µM
[2]
  Papp: 1.351 10e-6cm/s
Nav1.6
  IC50: 4.61 µM
[1]; Rattus norvegicus
  IC50: 11 µM
